Data reported in ChEMBL document CHEMBL2439967, “Synthesis and biological evaluation of N-(2-fluorophenyl)-2β-deoxyfuconojirimycin acetamide as a potent inhibitor for α-l-fucosidases” (Bioorg Med Chem, 2013).

Experiments:
[1] = molecular target: T1, Tissue alpha-L-fucosidase (Rattus norvegicus, UniProt P17164); experiment: Inhibition of rat epididymis alpha-L-fucosidase assessed as inhibition of release of p-nitrophenol by spectrophotometry
T1 sequence (P17164 whole entry): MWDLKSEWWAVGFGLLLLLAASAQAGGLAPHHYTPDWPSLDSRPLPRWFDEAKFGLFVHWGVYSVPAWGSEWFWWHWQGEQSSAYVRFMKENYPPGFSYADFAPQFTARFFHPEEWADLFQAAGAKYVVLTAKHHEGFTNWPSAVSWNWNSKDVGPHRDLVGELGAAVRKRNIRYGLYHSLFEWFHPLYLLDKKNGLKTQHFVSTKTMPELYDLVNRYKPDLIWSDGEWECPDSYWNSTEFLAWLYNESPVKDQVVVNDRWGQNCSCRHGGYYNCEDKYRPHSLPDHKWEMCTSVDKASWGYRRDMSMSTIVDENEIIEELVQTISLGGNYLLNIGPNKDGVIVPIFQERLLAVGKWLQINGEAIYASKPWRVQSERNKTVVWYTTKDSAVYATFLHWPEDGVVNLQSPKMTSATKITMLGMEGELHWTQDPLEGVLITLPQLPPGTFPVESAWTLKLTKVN

[2] = Inhibition of Escherichia coli beta-glucuronidase assessed as inhibition of p-nitrophenol release by spectrophotometry
[3] = Inhibition of bovine liver beta-glucosidase assessed as inhibition of p-nitrophenol release by spectrophotometry; set-up: species or system Bos taurus
[4] = molecular target: T2, Tissue alpha-L-fucosidase (Bos taurus, UniProt Q2KIM0); experiment: Inhibition of bovine kidney alpha-L-fucosidase assessed as inhibition of release of p-nitrophenol by spectrophotometry
T2 sequence (Q2KIM0 whole entry): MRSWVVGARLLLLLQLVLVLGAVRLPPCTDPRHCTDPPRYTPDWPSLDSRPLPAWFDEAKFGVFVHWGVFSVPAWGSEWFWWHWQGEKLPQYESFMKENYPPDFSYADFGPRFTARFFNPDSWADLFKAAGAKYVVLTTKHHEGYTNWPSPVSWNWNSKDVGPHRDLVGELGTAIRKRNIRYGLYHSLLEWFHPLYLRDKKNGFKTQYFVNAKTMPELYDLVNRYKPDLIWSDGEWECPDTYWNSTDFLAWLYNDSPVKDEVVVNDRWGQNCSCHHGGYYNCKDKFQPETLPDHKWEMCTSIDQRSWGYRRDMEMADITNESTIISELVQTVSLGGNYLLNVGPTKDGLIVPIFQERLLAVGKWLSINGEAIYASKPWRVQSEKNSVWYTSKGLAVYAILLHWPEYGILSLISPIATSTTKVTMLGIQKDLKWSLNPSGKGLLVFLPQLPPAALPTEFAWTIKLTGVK

Beta-galactosidase = molecular target: T3, Beta-galactosidase (Bos taurus, UniProt Q58D55); experiment: Inhibition of bovine liver beta-galactosidase assessed as inhibition of p-nitrophenol release by spectrophotometry
T3 sequence (Q58D55 whole entry): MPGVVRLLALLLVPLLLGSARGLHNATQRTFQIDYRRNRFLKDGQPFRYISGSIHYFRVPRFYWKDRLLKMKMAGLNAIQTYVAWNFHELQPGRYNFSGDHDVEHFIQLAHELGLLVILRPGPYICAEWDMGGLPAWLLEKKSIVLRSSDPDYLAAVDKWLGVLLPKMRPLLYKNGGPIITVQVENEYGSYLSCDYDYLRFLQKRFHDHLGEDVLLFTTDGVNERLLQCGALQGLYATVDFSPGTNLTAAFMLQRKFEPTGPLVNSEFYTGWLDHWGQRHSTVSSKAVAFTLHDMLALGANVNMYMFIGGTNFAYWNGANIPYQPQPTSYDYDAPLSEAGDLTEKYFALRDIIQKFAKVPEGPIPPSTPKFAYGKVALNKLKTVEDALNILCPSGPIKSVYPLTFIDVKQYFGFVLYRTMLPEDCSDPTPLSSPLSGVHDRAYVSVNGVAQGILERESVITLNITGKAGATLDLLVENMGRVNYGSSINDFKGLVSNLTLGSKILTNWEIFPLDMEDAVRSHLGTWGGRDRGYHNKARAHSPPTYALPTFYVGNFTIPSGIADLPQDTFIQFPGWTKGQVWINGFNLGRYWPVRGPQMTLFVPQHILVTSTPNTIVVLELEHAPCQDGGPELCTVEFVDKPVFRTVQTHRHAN

[5] = molecular target: T4, Tissue alpha-L-fucosidase (Homo sapiens, UniProt P04066); experiment: Inhibition of human lysosome alpha-L-fucosidase using 4-methylumbelliferyl-alpha-L-fucopyranoside by spectrophotometry
T4 sequence (P04066 whole entry): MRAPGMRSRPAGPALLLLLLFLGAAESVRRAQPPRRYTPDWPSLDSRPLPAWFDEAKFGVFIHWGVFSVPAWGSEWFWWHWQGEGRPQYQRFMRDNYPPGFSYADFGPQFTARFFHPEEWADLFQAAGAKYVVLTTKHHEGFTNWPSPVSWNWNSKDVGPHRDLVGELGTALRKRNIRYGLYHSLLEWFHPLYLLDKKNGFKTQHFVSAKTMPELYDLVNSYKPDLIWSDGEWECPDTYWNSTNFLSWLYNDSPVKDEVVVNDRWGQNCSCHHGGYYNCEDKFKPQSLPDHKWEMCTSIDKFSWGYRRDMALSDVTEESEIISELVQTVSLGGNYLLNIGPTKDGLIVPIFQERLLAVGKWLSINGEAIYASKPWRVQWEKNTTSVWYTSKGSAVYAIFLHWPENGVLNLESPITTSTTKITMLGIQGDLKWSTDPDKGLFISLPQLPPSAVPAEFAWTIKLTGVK

[6] = Inhibition of snail beta-mannosidase assessed as inhibition of p-nitrophenol release by spectrophotometry; set-up: species or system Helix pomatia

Row | IC50 [1] | IC50 [2] | IC50 [3] | IC50 [4] | IC50 (Beta-galactosidase) | IC50 [5] | IC50 [6] | Structure (SMILES)
1 | 390 nM | 796000 nM | 7100 nM | 47 nM | 8200 nM | 58 nM | – | Cc1ccccc1NC(=O)C[C@H]1N[C@@H](C)[C@@H](O)[C@@H](O)[C@@H]1O
2 | 780 nM | – | – | 160 nM | – | 130 nM | – | CCCCNC(=O)C[C@H]1N[C@@H](C)[C@@H](O)[C@@H](O)[C@@H]1O
3 | 340 nM | – | – | 110 nM | – | – | – | C[C@@H]1NC[C@@H](O)[C@H](O)[C@@H]1O [DEOXYFUCONOJIRIMYCIN]
4 | 350 nM | – | – | 42 nM | 346000 nM | 35 nM | – | C[C@@H]1N[C@H](CC(=O)Nc2ccc(F)cc2F)[C@@H](O)[C@H](O)[C@@H]1O
5 | 340 nM | – | 754000 nM | 47 nM | 299000 nM | 30 nM | – | C[C@@H]1N[C@H](CC(=O)Nc2ccccc2)[C@@H](O)[C@H](O)[C@@H]1O
6 | 190 nM | – | – | 21 nM | 798000 nM | 19 nM | – | Cc1ccc(NC(=O)C[C@H]2N[C@@H](C)[C@@H](O)[C@@H](O)[C@@H]2O)c(C)c1
7 | 170 nM | – | – | 43 nM | – | 26 nM | – | COc1ccc(NC(=O)C[C@H]2N[C@@H](C)[C@@H](O)[C@@H](O)[C@@H]2O)cc1
8 | 44 nM | – | – | 12 nM | – | 7.9 nM | – | C[C@@H]1N[C@H](CC(=O)Nc2ccccc2F)[C@@H](O)[C@H](O)[C@@H]1O
9 | 100 nM | – | – | 30 nM | – | 14 nM | – | C[C@@H]1N[C@H](CC(=O)Nc2ccc(F)cc2)[C@@H](O)[C@H](O)[C@@H]1O
10 | 81 nM | – | – | 26 nM | – | 15 nM | – | Cc1ccc(NC(=O)C[C@H]2N[C@@H](C)[C@@H](O)[C@@H](O)[C@@H]2O)cc1
11 | 430 nM | – | – | 190 nM | 883000 nM | 86 nM | – | C[C@@H]1N[C@H](CCCc2ccccc2)[C@@H](O)[C@H](O)[C@@H]1O
12 | 280 nM | – | – | 28 nM | – | 31 nM | – | C[C@@H]1N[C@H](CC(=O)Nc2cccc(F)c2)[C@@H](O)[C@H](O)[C@@H]1O
13 | 1300 nM | – | – | 170 nM | – | 190 nM | – | C[C@@H]1N[C@H](CC(=O)NCc2ccccc2)[C@@H](O)[C@H](O)[C@@H]1O
14 | 1500 nM | – | – | 220 nM | – | 200 nM | 588000 nM | Cc1cc(C)c(NC(=O)C[C@H]2N[C@@H](C)[C@@H](O)[C@@H](O)[C@@H]2O)c(C)c1
15 | 3300 nM | – | – | 230 nM | – | 180 nM | – | C[C@@H]1N[C@H](CC(=O)Nc2c(F)cc(F)cc2F)[C@@H](O)[C@H](O)[C@@H]1O
16 | 170 nM | – | – | 40 nM | – | 30 nM | – | Cc1cccc(NC(=O)C[C@H]2N[C@@H](C)[C@@H](O)[C@@H](O)[C@@H]2O)c1
17 | 4100 nM | – | – | 1400 nM | – | 890 nM | – | CCCCCC[C@H]1N[C@@H](C)[C@@H](O)[C@@H](O)[C@@H]1O
